Results published in patent US8106197B2, “Aminoheteroaryl compounds as protein kinase inhibitors” (Pfizer Inc., priority 2003, dated 2012).

target: T1, HGFR (Homo sapiens, UniProt P08581); assay: HGFR continuous-coupled spectrophotometric assay; assay type: biochemical; conditions: not given
T1 construct: purchased Upstate 14-526
T1 sequence (P08581 974-1390 limits assumed): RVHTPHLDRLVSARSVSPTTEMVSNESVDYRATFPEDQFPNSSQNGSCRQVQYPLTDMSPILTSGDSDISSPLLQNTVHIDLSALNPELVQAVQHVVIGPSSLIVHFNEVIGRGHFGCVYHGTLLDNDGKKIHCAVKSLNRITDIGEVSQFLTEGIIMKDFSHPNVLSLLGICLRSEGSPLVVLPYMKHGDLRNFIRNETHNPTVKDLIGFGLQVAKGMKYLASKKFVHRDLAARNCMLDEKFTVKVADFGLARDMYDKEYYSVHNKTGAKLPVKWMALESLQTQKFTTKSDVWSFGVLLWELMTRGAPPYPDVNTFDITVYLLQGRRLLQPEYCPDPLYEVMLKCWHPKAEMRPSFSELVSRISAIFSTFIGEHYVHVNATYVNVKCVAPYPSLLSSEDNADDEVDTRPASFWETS

Q: With `Nc1ncc(-c2ccc(C(=O)N3CCC(N4CCCC4)CC3)cc2)cc1OCc1cccc(C(=O)Nc2ccc(N3CCCCC3)cc2)c1` as the compound, how does the “% inhibition” value read?
A: % inhibition = 32

Q: With `Nc1ncc(-c2ccc(C(=O)N3CCC(N4CCCC4)CC3)cc2)cc1OCc1cccc(F)c1F` as the compound, how does the “% inhibition” value read?
A: % inhibition = 24

Q: Which “% inhibition” value does the source give for `Nc1ncc(-c2ccc(C(=O)N3CCC(N4CCCC4)CC3)cc2)cc1OCc1ccc(-c2ccnc(Br)n2)cc1` here?
A: % inhibition = 17

Q: Which “% inhibition” value does the source give for `Cn1c(COc2cc(-c3ccc(C(=O)N4CCC(N5CCCC5)CC4)cc3)cnc2N)nc2ccccc21` here?
A: % inhibition = 10

Q: With `Cc1cnc2nc(COc3cc(-c4ccc(C(=O)N5CCC(N6CCCC6)CC5)cc4)cnc3N)nn2c1` as the compound, how does the “% inhibition” value read?
A: % inhibition = 17

Q: With `N#Cc1cccc(COc2cc(-c3ccc(C(=O)N4CCC(N5CCCC5)CC4)cc3)cnc2N)c1` as the compound, how does the “% inhibition” value read?
A: % inhibition = 12

Q: For `Nc1ncc(-c2ccc(C(=O)N3CCC(N4CCCC4)CC3)cc2)cc1OCc1ccc(S(N)(=O)=O)cc1`, which “% inhibition” value is on record?
A: % inhibition = 17

Q: For `Nc1ncc(-c2ccc(C(=O)N3CCC(N4CCCC4)CC3)cc2)cc1OCc1cccc2cccnc12`, which “% inhibition” value is on record?
A: % inhibition = 22

Q: With `COc1cccc(COc2cc(-c3ccc(C(=O)N4CCC(N5CCCC5)CC4)cc3)cnc2N)c1OC` as the compound, how does the “% inhibition” value read?
A: % inhibition = 23

Q: For `COC(=O)Nc1cc(COc2cc(-c3ccc(C(=O)N4CCC(N5CCCC5)CC4)cc3)cnc2N)on1`, which “% inhibition” value is on record?
A: % inhibition = 18

Q: Which “% inhibition” value does the source give for `Nc1ncc(-c2ccc(C(=O)N3CCC(N4CCCC4)CC3)cc2)cc1OCc1nc(N)c2ccccc2n1` here?
A: % inhibition = 15

Q: With `CCN1CCCC1CNC(=O)c1ccc(COc2cc(-c3ccc(C(=O)N4CCC(N5CCCC5)CC4)cc3)cnc2N)cc1` (stereo not drawn) as the compound, how does the “% inhibition” value read?
A: % inhibition = 18

Q: With `COc1ccc(-c2nc(COc3cc(-c4ccc(C(=O)N5CCC(N6CCCC6)CC5)cc4)cnc3N)no2)cc1` as the compound, how does the “% inhibition” value read?
A: % inhibition = 10

Q: `COC(=O)c1ccc(COc2cc(-c3ccc(C(=O)N4CCC(N5CCCC5)CC4)cc3)cnc2N)c(OC)c1` was tested. Which “% inhibition” value did it give?
A: % inhibition = 15

Q: How did the “% inhibition” value turn out when `Cc1cccnc1COc1cc(-c2ccc(C(=O)N3CCC(N4CCCC4)CC3)cc2)cnc1N` was run?
A: % inhibition = 16

Q: `Nc1ncc(-c2ccc(C(=O)N3CCC(N4CCCC4)CC3)cc2)cc1OCc1cncc2ccccc12` was tested. Which “% inhibition” value did it give?
A: % inhibition = 9

Q: How did the “% inhibition” value turn out when `Nc1ncc(-c2ccc(C(=O)N3CCC(N4CCCC4)CC3)cc2)cc1OCc1cc(-c2ccccc2)no1` was run?
A: % inhibition = 23

Q: For `Nc1ncc(-c2ccc(C(=O)N3CCC(N4CCCC4)CC3)cc2)cc1OCc1ncccn1`, which “% inhibition” value is on record?
A: % inhibition = 9

Q: How did the “% inhibition” value turn out when `Nc1ncc(-c2ccc(C(=O)N3CCC(N4CCCC4)CC3)cc2)cc1OCc1ncc(C(F)(F)F)cc1Cl` was run?
A: % inhibition = 8

Q: With `Nc1ncc(-c2ccc(C(=O)N3CCC(N4CCCC4)CC3)cc2)cc1OCc1c(F)ccc(F)c1F` as the compound, how does the “% inhibition” value read?
A: % inhibition = 30

Q: With `Cc1ccc(COc2cc(-c3ccc(C(=O)N4CCC(N5CCCC5)CC4)cc3)cnc2N)cc1Cl` as the compound, how does the “% inhibition” value read?
A: % inhibition = 26

Q: Which “% inhibition” value does the source give for `Nc1nc(COc2cc(-c3ccc(C(=O)N4CCC(N5CCCC5)CC4)cc3)cnc2N)nc(Nc2ccccc2)n1` here?
A: % inhibition = 9

Q: Which “% inhibition” value does the source give for `Nc1ncc(-c2ccc(C(=O)N3CCC(N4CCCC4)CC3)cc2)cc1OCc1ccc(C(F)(F)F)cc1F` here?
A: % inhibition = 25

Q: With `Cn1ccnc1COc1cc(-c2ccc(C(=O)N3CCC(N4CCCC4)CC3)cc2)cnc1N` as the compound, how does the “% inhibition” value read?
A: % inhibition = 14

same assay, conditions: Table 3; Ki(μM) or I(%); test concentration not given

Q: With `CC(Oc1cc(-c2ccccc2CO)cnc1N)c1c(Cl)ccc(F)c1Cl` (stereo not drawn) [Example I-564, (2-{6-Amino-5-[1-(2,6-dichloro-3 fluoro-phenyl)-ethoxy]pyridin-3-yl}-phenyl)-methanol] as the compound, how does the “I(%)” value read?
A: 21%

Q: `CC(Oc1cc(-c2ccccc2OC(F)(F)F)cnc1N)c1c(Cl)ccc(F)c1Cl` (stereo not drawn) [Example I-561, 3-[1-(2,6-Didiloro-3-fluoro-phenyl)-ethoxy]-5-(2-trifluoromethoxy-phenyl)-pyridin-2-ylamine] was tested. Which “I(%)” value did it give?
A: 14%

Q: How did the “I(%)” value turn out when `C[C@@H]1CN(C(=O)c2ccc(-c3cnc(N)c(OCc4cccc(F)c4C(F)(F)F)c3)cc2)C[C@H](C)N1` [Example I-619, {4-[6-Amino-5-(3-fluoro-2-trifluoromethyl-benzyloxy)-pyridin-3-yl]-phenyl}-(3,5-dimethyl-piperazin-1-yl)-methanone] was run?
A: 16%

Q: For `CC(Oc1cc(-c2ccccc2Cl)cnc1N)c1c(Cl)ccc(F)c1Cl` (stereo not drawn) [Example I-560, 5-(2-Chloro-phenyl)-3-[1-(2,6-dichloro-3-fluoro-phenyl)-ethoxy]-pyridin-2-ylamine], which “I(%)” value is on record?
A: 24%

same assay, conditions: Table 5; percent c-MET inhibition at 50 nM

Q: Which inhibition at 0.05 µM does the source give for `CC(Oc1cc(-c2ccc(C(=O)N[C@H](C)C3CCCCC3)cc2)cnc1N)c1c(Cl)ccc(F)c1Cl` (stereo partly drawn) [drawing 1068] here?
A: 60%

Q: How did the inhibition at 0.05 µM turn out when `CC(=O)NC1CCN(C(=O)c2ccc(-c3cnc(N)c(OC(C)c4c(Cl)ccc(F)c4Cl)c3)cc2)C1` (stereo not drawn) was run?
A: 77%

Q: For `CC(Oc1cc(-c2ccc(C(=O)NC[C@H]3CCCO3)cc2)cnc1N)c1c(Cl)ccc(F)c1Cl` (stereo partly drawn), which inhibition at 0.05 µM is on record?
A: 60%

Q: For `CCC1CCCCN1C(=O)c1ccc(-c2cnc(N)c(OC(C)c3c(Cl)ccc(F)c3Cl)c2)cc1` (stereo not drawn), which inhibition at 0.05 µM is on record?
A: 56%

same assay, conditions: Table 6; percent c-MET inhibition at 1 μM; read-out: % inhibition

Q: With `Nc1ncc(C(=O)NC[C@H]2CCCC[C@H]2O)cc1OCc1c(Cl)cccc1Cl` as the compound, how does the inhibition at 1 µM read?
A: 24%

Q: With `CC(NC(=O)c1cnc(N)c(OCc2c(Cl)cccc2Cl)c1)c1ccc(O)cc1` (stereo not drawn) as the compound, how does the inhibition at 1 µM read?
A: 36%

Q: How did the inhibition at 1 µM turn out when `Nc1ncc(C(=O)N2CCC(Cc3ccc(F)cc3)CC2)cc1OCc1c(Cl)cccc1Cl` was run?
A: 41%

Q: Which inhibition at 1 µM does the source give for `CCC(CC)CN1CCC2(CC1)CC(NC(=O)c1cnc(N)c(OCc3c(Cl)cccc3Cl)c1)CO2` (stereo not drawn) here?
A: 74%

Q: `C[C@@H]1CN(C(=O)c2cnc(N)c(OCc3c(Cl)cccc3Cl)c2)C[C@H](C)O1` was tested. Which inhibition at 1 µM did it give?
A: 32%

Q: Which inhibition at 1 µM does the source give for `Nc1ncc(C(=O)NC(CO)c2cccnc2)cc1OCc1c(Cl)cccc1Cl` (stereo not drawn) here?
A: 22%

Q: For `Nc1ncc(C(=O)N2CCC(CCO)CC2)cc1OCc1c(Cl)cccc1Cl`, which inhibition at 1 µM is on record?
A: 45%

Q: With `Nc1ncc(C(=O)NCCCN2CCCC2=O)cc1OCc1c(Cl)cccc1Cl` as the compound, how does the inhibition at 1 µM read?
A: 34%

Q: `CN(CC(N)=O)C(=O)c1cnc(N)c(OCc2c(Cl)cccc2Cl)c1` was tested. Which inhibition at 1 µM did it give?
A: 39%

Q: With `CN(CCS(C)(=O)=O)C(=O)c1cnc(N)c(OCc2c(Cl)cccc2Cl)c1` as the compound, how does the inhibition at 1 µM read?
A: 26%

Q: With `CN(CCc1ccccn1)CC1(O)CCN(C(=O)c2cnc(N)c(OCc3c(Cl)cccc3Cl)c2)C1` (stereo not drawn) as the compound, how does the inhibition at 1 µM read?
A: 18%

Q: How did the inhibition at 1 µM turn out when `Nc1ncc(C(=O)N2CCN(CCCO)CC2)cc1OCc1c(Cl)cccc1Cl` was run?
A: 31%

Q: Which inhibition at 1 µM does the source give for `Cn1ccnc1SCC1(O)CCCN(C(=O)c2cnc(N)c(CCc3c(Cl)cccc3Cl)c2)CC1` (stereo not drawn) here?
A: 35%

Q: With `CC(C)CCNC(=O)c1cnc(N)c(OCc2c(Cl)cccc2Cl)c1` as the compound, how does the inhibition at 1 µM read?
A: 26%

Q: With `CS(=O)(=O)CCN1CCN(C(=O)c2cnc(N)c(OCc3c(Cl)cccc3Cl)c2)CC1` as the compound, how does the inhibition at 1 µM read?
A: 25%

Q: How did the inhibition at 1 µM turn out when `CC(C)(O)c1ccc(CNC(=O)c2cnc(N)c(OCc3c(Cl)cccc3Cl)c2)cc1` was run?
A: 24%

Q: How did the inhibition at 1 µM turn out when `CC(C)CNC(=O)c1ccc(Cl)c(CNC(=O)c2cnc(N)c(OCc3c(Cl)cccc3Cl)c2)c1` was run?
A: 47%

Q: `Nc1ncc(C(=O)NCCN2CCOCC2)cc1OCc1c(Cl)cccc1Cl` was tested. Which inhibition at 1 µM did it give?
A: 31%

Q: With `Nc1ncc(C(=O)N2CCC(O)(Cc3ccccc3)CC2)cc1OCc1c(Cl)cccc1Cl` as the compound, how does the inhibition at 1 µM read?
A: 62%

Q: With `Nc1ncc(C(=O)N2CCN(c3ccccn3)CC2)cc1OCc1c(Cl)cccc1Cl` as the compound, how does the inhibition at 1 µM read?
A: 34%

Q: How did the inhibition at 1 µM turn out when `Nc1ncc(C(=O)NCCc2ccc(O)cc2)cc1OCc1c(Cl)cccc1Cl` was run?
A: 34%

Q: With `CCS(=O)(=O)N1CCN(C(=O)c2cnc(N)c(OCc3c(Cl)cccc3Cl)c2)CC1` as the compound, how does the inhibition at 1 µM read?
A: 22%
